For 78 molecules, AC50 results are on record in PubChem BioAssay AID977628 (Broad Institute, 2014).

Test in all cases: growth of wild-type and h24-humanized E. coli strains – h24 mutant RFP vs wild-type GFP, cherry-pick, dose response (AID 977628)
The test system of experiment [1] is E. coli WT GFP strain growth, fluorescence, 24 h.
In experiment [2] the test system is E. coli h24 humanized mutant RFP strain growth, fluorescence, 24 h.
Experiment [3] concerns E. coli mixed WT/h24 culture total growth, OD600, 24 h.

Inconclusive results are not listed. The source made the active and inactive calls.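 The calls were made as follows: active = compound lowering the normal-ribosome reporter at least twice as much as the humanized-ribosome reporter, growth loss under a set limit; inconclusive = no clear call, values can overlap the other calls; inactive = the rest.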 Where only a bound is given, the exact number is not on record here.

Take `COC(=O)c1ccccc1NC(=O)c1ccc2c(c1)CC(C)O2` (stereo not drawn): the results for the AC50 in experiment [1] and in experiment [2] were > 100 µM (inactive) and above 100 µM, respectively.
Consider `O=C1c2ccccc2C(c2nnnn2C2CCCCC2)N1CCc1ccc(O)cc1` (stereo not drawn), for which the AC50 (as a rule, the concentration giving half of the maximal activity seen) in experiment [2] was above 100 µM.
Same read-out and setting: to `O=C(NCc1ccccc1Cl)c1ccc2c(c1)SC1=NS(=O)(=O)CCN12` belongs above 100 µM.
In the case of `CCOc1ccc(S(=O)(=O)N(C)c2ccc(OCC(=O)Nc3ccc4[nH]c(=O)[nH]c4c3)cc2)cc1`, the results for the AC50 in experiment [1] and in experiment [2] were > 100 µM (inactive) and above 100 µM, respectively.
In experiment [2], `CC(OC(=O)COc1ccccc1)C(=O)NC1CCCC1` (stereo not drawn) came in with an AC50 above 100 µM.
With `O=C(Nc1cccc2ccccc12)c1ccc([N+](=O)[O-])o1`, the AC50 in experiment [1] is > 100 µM (inactive); in experiment [2] it was above 100 µM.
In experiment [2], `Cn1ccc2cc(-c3ccc4ncnc(NCc5cccs5)c4c3)ccc21` gave an AC50 above 100 µM.
Consider `COc1ccc2oc(C(=O)NCc3ccco3)c(C)c2c1`, for which the AC50 in experiment [1] is > 100 µM (inactive); in experiment [2], above 100 µM.
Take `Cc1nn(C)cc1NC(=O)C[C@@H]1CC[C@@H]2[C@@H](COc3ccc(NC(=O)C4CCC4)cc3C(=O)N2C)O1`: the AC50 is > 100 µM (inactive) in experiment [1] and 3.9 µM in experiment [2].
As to `O=C(Nc1cccc(O)c1)c1cccc(S(=O)(=O)Nc2cccc(O)c2)c1`, the AC50 in experiment [2] is above 100 µM.
As to `Cc1nc2ncnn2c(N2CCC(C(=O)NC3CCCC3)CC2)c1Cc1ccccc1`, the AC50 in experiment [2] is above 100 µM.
Turning to `COc1ccc(NC(=O)c2nc[nH]c2C(=O)N(C)Cc2ccccc2)cc1`, the AC50 is > 100 µM (inactive) in experiment [1] and above 100 µM in experiment [2].
On to `COC(=O)c1cc2ccccc2n1S(=O)(=O)c1ccccc1`, for which the half-maximal activity concentration (AC50) in experiment [2] was above 100 µM.
In experiment [2], `COc1ccc2c(c1)c1ncn(Cc3ccccn3)c(=O)c1n2C` showed a concentration at half-maximal activity (AC50) above 100 µM.
In the case of `COc1ccc(CCNc2nc(-c3ccncc3)cs2)cc1OC`, the figures for the AC50 in experiment [1] and in experiment [2] were > 100 µM (inactive) and above 100 µM, respectively.
The molecule `COCC(C)NC(=O)c1nn(Cc2ccccc2)c(=O)c2ccccc12` (stereo not drawn) yielded an AC50 in experiment [2] above 100 µM.
Take `O=C(c1cccs1)c1c[nH]cc1-c1ccccc1`: in experiment [2], the AC50 is above 100 µM.
In the case of `CCOC(=O)[C@]12Cc3ccccc3[C@H]1N(C)C(=O)c1cc(OC)ccc12`, the AC50 is > 100 µM (inactive) in experiment [1] and above 100 µM in experiment [2].
With `N#Cc1ccsc1NC(=O)CSc1nnnn1-c1ccc(O)cc1`, the AC50 in experiment [1] is > 100 µM (inactive); in experiment [2], above 100 µM.
In the case of `Clc1ccc2nc(CN3CCCc4ccccc43)cn2c1`, the results for the AC50 in experiment [1] and in experiment [2] were > 100 µM (inactive) and above 100 µM, respectively.
In turn, `O=C(Nc1ccc(-c2nnc3n2CCCCC3)cc1)c1cc2ccccc2o1` displayed an AC50 in experiment [2] above 100 µM.
On to `COc1ccccc1NC(=O)COC(=O)Cc1c[nH]c2ccccc12`, for which, in experiment [2], the AC50 was above 100 µM.
`O=C(NCCc1ccccc1)c1ccc2c(c1)S(=O)(=O)c1ccccc1C2=O`: the AC50 in experiment [1] is > 100 µM (inactive); in experiment [2], above 100 µM.
For the molecule `Cc1cc(C(=O)c2ccc3ccccc3c2)c(C)o1`, the figures for the AC50 in experiment [1] and in experiment [2] were > 100 µM (inactive) and above 100 µM, respectively.
On to `CCc1cccc(NC(=O)CN(C)S(=O)(=O)c2cccc3cccnc23)c1`, for which, in experiment [2], the AC50 was above 100 µM.
With `CCN(CC)CCN(C(=O)C1CCCCC1)c1nc2cc3c(cc2s1)OCO3`, the AC50 in experiment [1] is > 100 µM (inactive); in experiment [2], above 100 µM.
In the case of `CCOc1ccc(S(=O)(=O)N(C)c2ccc(OCC(=O)NCc3cccnc3)cc2)cc1`, in experiment [2], the AC50 is above 100 µM.
In the case of `O=C(NCCC1=CCCCC1)c1ccc(Cl)c(S(=O)(=O)Nc2ccccc2)c1`, the AC50 in experiment [1] is > 100 µM (inactive); in experiment [2], above 100 µM.
Take `COc1ccccc1OCC(=O)Nc1ccc(S(=O)(=O)N2CCCCCC2)cc1`: the values for the AC50 in experiment [1] and in experiment [2] were > 100 µM (inactive) and above 100 µM, respectively.
`COc1cc(C)ccc1OCc1cc(C(=O)N2CCC(c3ccc(F)cc3)C2)no1` (stereo not drawn): the AC50 was > 100 µM (inactive) in experiment [1] and above 100 µM in experiment [2].
As to `O=C(O)c1ccc(-c2noc(-c3cccc(Cl)c3)n2)cc1`, the AC50 is > 100 µM (inactive) in experiment [1] and above 100 µM in experiment [2].
On to `O=S(=O)(NCc1ccc2c(c1)OCO2)c1ccc2c(c1)oc1ccccc12`, for which the values for the AC50 in experiment [1] and in experiment [2] were > 100 µM (inactive) and above 100 µM, respectively.
Turning to `CCCC(=O)Nc1cccc(C(=O)Nc2ccccc2OCC)c1`, in experiment [2], the AC50 is above 100 µM.
In the case of `O=C(O)c1cccnc1SCc1ccccc1Cl`, the AC50 in experiment [1] was > 100 µM (inactive); in experiment [2], above 100 µM.
With `Cc1ccc(C(=O)Nc2ccc3ncccc3c2)cc1`, the AC50 in experiment [2] was above 100 µM.
On the same count and under the same terms, to `S=C1SCN(Cc2cccnc2)CN1Cc1cccnc1` belongs above 100 µM; to `CC(NC(=O)c1ccncc1)c1ccc(Cl)cc1Cl` (stereo not drawn), above 100 µM.
On to `Cc1cccc(CSCC(=O)N2CCN(S(=O)(=O)c3ccccc3C#N)CC2)c1`, for which the AC50 in experiment [1] was > 100 µM (inactive); in experiment [2], above 100 µM.
On to `O=c1[nH]n2c(-c3ccccc3)nc(O)c2c2ccccc12`, for which the AC50 was > 100 µM (inactive) in experiment [1] and 36.6 µM in experiment [2].
In experiment [2], `O=C(Nc1ccc(Br)cc1)c1cccnc1N1CCCCC1` returned an AC50 above 100 µM.
With `C(=C/c1nccc2c1[nH]c1ccccc12)/c1ccc2c(c1)OCO2`, the AC50 in experiment [2] is above 100 µM.
In the case of `CCOc1cc(/C=C(\CC(=O)O)c2nc3ccccc3s2)ccc1OC`, in experiment [2], the AC50 is above 100 µM.
As for `O=C1C(c2ccccc2)c2ccccc2N1Cc1ccccc1` (stereo not drawn), the AC50 was > 100 µM (inactive) in experiment [1] and above 100 µM in experiment [2].
With `C#CC(C)(C)NC(=O)c1ccc(-c2ccccc2F)cc1`, in experiment [2], the AC50 is above 100 µM.
The molecule `O=C(NCCCn1ccnc1)c1sc2cc([N+](=O)[O-])ccc2c1Cl` came in with an AC50 in experiment [2] above 100 µM.
On the same count and under the same terms, in the case of `C=CCNC(=O)c1ccccc1CCc1ccccc1` it was above 100 µM; in that of `O=C(CSCc1cnn(-c2ccccc2)c1-n1cccc1)NCc1cccnc1`, above 100 µM.
As to `O=C(C1Cc2ccccc2CN1C(=O)c1ccccc1)N1CCN(c2ccccc2)CC1` (stereo not drawn), the AC50 in experiment [2] was above 100 µM.
Same read-out and setting: in the case of `CSc1nc2nc3c(cc2c(=O)n1-c1ccccc1C)CCCC3` it was 6.76 µM.
`c1ccc(CSCc2ccccc2)cc1` displayed an AC50 in experiment [2] above 100 µM.
For `O=C(CSCc1ccc(Br)cc1)NCc1ccccn1`, the AC50 in experiment [2] was above 100 µM.
Consider `Cc1cccc(-n2cnc3cc([N+](=O)[O-])ccc32)c1`, for which the AC50 in experiment [2] is above 100 µM.
Consider `Nc1ccc(C(=O)OCCc2ccccc2)cc1`, for which the AC50 in experiment [2] was above 100 µM.
In experiment [2], `Cc1cc(Br)cn2c(Cc3cccc(Cl)c3)c(-c3ccco3)nc12` showed an AC50 above 100 µM.
`N#Cc1nc(-c2ccco2)oc1NCc1ccccc1Cl` returned an AC50 in experiment [2] above 100 µM.
Still for that read-out and setting: to `CCOC(=O)C(C)Sc1nc(N2CCOCC2)c2c(c1C#N)CC(C)(C)OC2` (stereo not drawn) belongs above 100 µM; to `CC(=O)Nc1cccc(OCc2ccc([N+](=O)[O-])cc2)c1`, above 100 µM.
In the case of `Cn1cnc([N+](=O)[O-])c1Oc1ccccc1`, the AC50 in experiment [2] was above 100 µM.
Turning to `O=C(O)CC1(CC(=O)Nc2ccc3sccc3c2)CCCCC1`, in experiment [2], the AC50 was above 100 µM.
For the molecule `COc1cc2c(cc1OC)CN(c1ccc([N+](=O)[O-])c(C(F)(F)F)c1)CC2`, the figures for the AC50 in experiment [1] and in experiment [3] were > 100 µM (inactive) and above 100 µM, respectively.
For `CCOC(=O)c1nc(C)sc1-c1ccnn1S(=O)(=O)c1cccc(Cl)c1`, the AC50 in experiment [1] was > 100 µM (inactive); in experiment [3], 41.7 µM.
Consider `C=C1SC(Nc2c(C)cc(C)cc2C)=NC12CCCCC2`, for which the values for the AC50 in experiment [1] and in experiment [3] were > 100 µM (inactive) and 22.8 µM, respectively.
Consider `Nc1[nH]c(C(=O)c2ccccc2)c(-c2ccc(Cl)cc2)c1C(=O)NCCc1c[nH]c2ccccc12`, for which the results for the AC50 in experiment [1] and in experiment [3] were > 100 µM (inactive) and above 100 µM, respectively.
For `COc1ccc(C(=O)COC(=O)c2ccccc2O)c(OC)c1`, the figures for the AC50 in experiment [1] and in experiment [3] were > 100 µM (inactive) and 40 µM, respectively.
On the same counts, the results for `Cc1nnn(C23CC4CC(CC(CC(=O)Nc5ccc(C)c(C)c5)(C4)C2)C3)n1` are > 100 µM (inactive) and above 100 µM.
Take `CCOc1ccc2oc(-c3ccccc3)c(C(=O)N(C)C)c2c1`: in experiment [2], the concentration at half-maximal activity (AC50) was above 100 µM.
For `O=C(Nc1ccc2c(c1)OCO2)c1cccc(S(=O)(=O)N2CCCC2)c1`, the AC50 in experiment [1] was > 100 µM (inactive); in experiment [3] it was above 100 µM.
For `COc1ccc(-n2ccnc2SCC(=O)NCc2ccccc2)c(OC)c1`, in that order: > 100 µM (inactive) and above 100 µM.
`CCOC(=O)c1[nH]c2ccccc2c1NC(=O)c1ccc(Br)o1`: the AC50 in experiment [1] was > 100 µM (inactive); in experiment [3], 41.7 µM.
With `CCn1c(CNC(=O)c2ccccc2F)cc2cc(C)ccc21`, the AC50 in experiment [1] was > 100 µM (inactive); in experiment [3], above 100 µM.
For `Cn1cnc(CCNC(=O)C[C@H]2CC[C@@H]3[C@H](COC[C@H](O)CN3C(=O)Nc3ccc(Cl)cc3)O2)c1`, the AC50 in experiment [1] is > 100 µM (inactive); in experiment [3], above 100 µM.
For `O=C(Cn1c(CO)nc2ccccc21)NCCc1ccc(F)cc1`, the AC50 in experiment [1] is > 100 µM (inactive); in experiment [3], above 100 µM.
For `CCCNC(=O)c1cc(C2CCCN(S(=O)(=O)c3cccc4cccnc34)C2)on1` (stereo not drawn), the AC50 in experiment [1] was > 100 µM (inactive); in experiment [3] it was above 100 µM.
On to `CC(C)Cn1c(=O)c2ccccc2c2ccccc2c1=O`, for which the AC50 was > 100 µM (inactive) in experiment [1] and above 100 µM in experiment [3].
For `O=C(COC(=O)C12CC3CC(CC(O)(C3)C1)C2)NCCc1ccc(Cl)cc1`, in that order: > 100 µM (inactive) and above 100 µM.
For `O=C(CSc1nc2ccccc2[nH]1)Nc1cccc(S(=O)(=O)N2CCOCC2)c1`, the AC50 in experiment [1] is > 100 µM (inactive); in experiment [3], 47.9 µM.
As to `COc1cc(OC)cc(C(=O)Nc2ccc(S(=O)(=O)Nc3cnc4ccccc4n3)cc2)c1`, the AC50 in experiment [1] was > 100 µM (inactive); in experiment [3], 42.2 µM.
As for `COCC#Cc1ccc2c(c1)O[C@@H](CN(C)S(=O)(=O)c1cccc(F)c1)[C@@H](C)CN([C@H](C)CO)S2(=O)=O`, the results for the AC50 in experiment [1] and in experiment [3] were > 100 µM (inactive) and 50 µM, respectively.
